According to patent publication US20130274235A1, “TREATMENT OF MOTOR NEURON DISEASE” (THE GENERAL HOSPITAL CORPORATION, priority 2010, published 2013):
Values joined by “and” are separate entries in the source; they are usually repeats but may differ in a detail not shown here. Equal values may be shown once. Where a name gives a salt, the structure may show the parent alone. Where a SMILES comes first, the peptide text is derived from it.

How the values were obtained:
IGF-II mRNA = assay: IGF-II expression assay, qPCR detection, in primary spinal cord cultures; assay type: cell-based, mice; details: for IGF-II inducing activity (in words) / induction of IGF-II expression (fold induction): NSAID series, FIGS. 3 and 4; for induction of IGF-II expression (in words): antihypertensive agents, FIGS. 5 and 6
Experimental: Quantitative PCR utilizing SYBR green I (Molecular Probes, Eugene, Oreg.) or specific Taqman probes was used to confirm differential gene expression. RNA extracted from 100-200 LCMed motor neurons were reverse transcribed using Superscript III (Invitrogen). 2 μl of diluted cDNA was amplified (DNA Engine Opticon real-time PCR machine, Bio-Rad), in […] reactions containing 900 nM primer and 250 nM probe in Taqman Universal Master Mix (Applied Biosystems). Reactions were run in duplicate and each gene analyzed in at least three different animals. Reaction parameters were as follows: 50° C. for 2 min, 95° C. for 10 min, and 40 cycles of 95° C. for 15 s and 60° C. for 1 min. Controls lacking template and/or Superscript were included. The absolute copy number for each gene was quantified using a standard curve from human GAPDH plasmid and amplified products were normalized against rat GAPDH expression. Primers and probes (Integrated DNA technologies) were as follows: rat GAPDH: Forward primer: […]
Two libraries of FDA-approved drugs (NINDS and Harvard LDDN) were screened for their ability to up-regulate IGF-II expression. Candidate compounds were screened in an IGF-II expression assay using a qPCR detection methodology in primary spinal cord cultures or using a luciferase reporter assay. In the initial screening, therapeutic candidates were identified as those that increased IGF-II expression by at least 2-fold. […]

IGF-II protein = IGF-II protein expression in primary spinal cord cultures, quantitated by ELISA; assay type: cell-based, mice
Text: Further results of the library screening identified the following therapeutic agents as having a significant inducing effect on IGF-II expression in primary spinal cord cultures and are useful for treating motor neuron disease. Protein expression was quantitated by ELISA.

Clc1ccc2c(c1)C(N1CCNCC1)=Nc1ccccc1O2 [Amoxapine]
Fold Increase in IGF-II mRNA Expression (IGF-II mRNA): 4.1 ± 2.3 fold

COC(=O)[C@H](Cc1ccccc1)NC(=O)[C@@H](N)CC(=O)O [Aspartame] (H-Asp-Phe-OMe)
Fold Increase in IGF-II mRNA Expression (IGF-II mRNA): 5.5 ± 0.7 fold | Fold Increase in IGF-II Protein Expression (IGF-II protein): 1.2 fold | IGF-II Protein Expression (pg/ml in media) (IGF-II protein): (175 ± 1.7) pg/ml

CNCC[C@@H](Oc1ccccc1C)c1ccccc1 [Atomoxetine HCl]
Fold Increase in IGF-II mRNA Expression (IGF-II mRNA): 4.8 fold

CN1CCCC(n2nc(Cc3ccc(Cl)cc3)c3ccccc3c2=O)CC1 (centres unmarked) [Azelastine HCl]
Fold Increase in IGF-II mRNA Expression (IGF-II mRNA): 3.2 fold

CC(C(=O)O)c1ccc2c(c1)[nH]c1ccc(Cl)cc12 (centres unmarked) [Carboprofen]
Fold Increase in IGF-II mRNA Expression (IGF-II mRNA): 2.4 fold | IGF-II inducing activity (in words) (IGF-II mRNA): strong IGF-II inducing activity

Nc1nc(/C(=C/CC(=O)O)C(=O)N[C@@H]2C(=O)N3C(C(=O)O)=CCS[C@H]23)cs1 [Ceftibuten]
Fold Increase in IGF-II mRNA Expression (IGF-II mRNA): 3.9 ± 2.7 fold

O=C(O)COCCN1CCN(C(c2ccccc2)c2ccc(Cl)cc2)CC1 (centres unmarked) [Cetirizine HCl]
Fold Increase in IGF-II mRNA Expression (IGF-II mRNA): 5.8 fold

CN(C)CCCN1c2ccccc2Sc2ccc(Cl)cc21 [Chlorpromazine]
Fold Increase in IGF-II mRNA Expression (IGF-II mRNA): 3.4 fold

CN(C)CCCC1(c2ccc(F)cc2)OCc2cc(C#N)ccc21 (centres unmarked) [Citalopram]
Fold Increase in IGF-II mRNA Expression (IGF-II mRNA): 3.4 fold

CC(=O)OCC(=O)[C@@]1(O)[C@H](C)C[C@H]2[C@@H]3CCC4=CC(=O)C=C[C@]4(C)[C@@]3(F)[C@@H](O)C[C@@]21C [Dexamethasone acetate]
Fold Increase in IGF-II mRNA Expression (IGF-II mRNA): 3.8 fold

O=C(O)Cc1ccccc1Nc1c(Cl)cccc1Cl [Diclofenac]
Fold Increase in IGF-II mRNA Expression (IGF-II mRNA): 4.0 ± 1.1 fold | induction of IGF-II expression (fold induction) (IGF-II mRNA): 3.4±1.3 fold | Fold Increase in IGF-II Protein Expression (IGF-II protein): 1.1 fold | IGF-II Protein Expression (pg/ml in media) (IGF-II protein): (112 ± 29) pg/ml

Cc1onc(-c2c(Cl)cccc2Cl)c1C(=O)N[C@@H]1C(=O)N2[C@@H]1SC(C)(C)[C@@H]2C(=O)O [Dicloxacillin sodium]
Fold Increase in IGF-II mRNA Expression (IGF-II mRNA): 3.2 fold

COc1ccc([C@@H]2Sc3ccccc3N(CCN(C)C)C(=O)[C@@H]2OC(C)=O)cc1 [Diltiazem HCl]
Fold Increase in IGF-II mRNA Expression (IGF-II mRNA): 4.3 fold | induction of IGF-II expression (in words) (IGF-II mRNA): most active

CN1CCC[C@@H]1Cc1c[nH]c2ccc(CCS(=O)(=O)c3ccccc3)cc12 [Eletriptan HBr]
Fold Increase in IGF-II mRNA Expression (IGF-II mRNA): 4.3 fold

CNCCC(Oc1ccc(C(F)(F)F)cc1)c1ccccc1 (centres unmarked) [Fluoxetine]
Fold Increase in IGF-II mRNA Expression (IGF-II mRNA): 4.3 ± 2.3 fold

CC(C(=O)O)c1ccc(-c2ccccc2)c(F)c1 (centres unmarked) [Flurbiprofen]
Fold Increase in IGF-II mRNA Expression (IGF-II mRNA): 2.5 fold and 2.5 ± 0.5 fold | induction of IGF-II expression (fold induction) (IGF-II mRNA): 2.5±0.5 fold | Fold Increase in IGF-II Protein Expression (IGF-II protein): 1.2 fold | IGF-II Protein Expression (pg/ml in media) (IGF-II protein): (121 ± 27) pg/ml

COCCCC/C(=N\OCCN)c1ccc(C(F)(F)F)cc1 [Fluvoxamine maleate]
Fold Increase in IGF-II mRNA Expression (IGF-II mRNA): 4.8 fold

COc1ccc(Cl)cc1C(=O)NCCc1ccc(S(=O)(=O)NC(=O)NC2CCCCC2)cc1 [Glyburide]
Fold Increase in IGF-II mRNA Expression (IGF-II mRNA): 4.9 fold

COc1ccccc1OCC(O)CO (centres unmarked) [Guaifenesin]
Fold Increase in IGF-II mRNA Expression (IGF-II mRNA): 2.9 fold

NNc1nncc2ccccc12 [Hydralazine HCl]
Fold Increase in IGF-II mRNA Expression (IGF-II mRNA): 6.3 fold | induction of IGF-II expression (in words) (IGF-II mRNA): most active

C[N+](C)(C)C[C@H](O)CC(=O)[O-] [Levocarnitine]
Fold Increase in IGF-II mRNA Expression (IGF-II mRNA): 5.7 ± 1.1 fold | Fold Increase in IGF-II Protein Expression (IGF-II protein): 1.7 fold | IGF-II Protein Expression (pg/ml in media) (IGF-II protein): (258 ± 7) pg/ml

N[C@@H](Cc1ccc(O)c(O)c1)C(=O)O [Levodopa]
Fold Increase in IGF-II mRNA Expression (IGF-II mRNA): 3.5 fold

Cc1cnc(NC(=O)C2=C(O)c3ccccc3S(=O)(=O)N2C)s1 [Meloxicam sodium]
Fold Increase in IGF-II mRNA Expression (IGF-II mRNA): 4.1 fold

CCOC(=O)[C@@](C)(N)Cc1ccc(O)c(O)c1 [Methyldopate HCl]
Fold Increase in IGF-II mRNA Expression (IGF-II mRNA): 4.3 fold | induction of IGF-II expression (in words) (IGF-II mRNA): most active

NC(=O)C[S+]([O-])C(c1ccccc1)c1ccccc1 (centres unmarked) [Modafinil]
Fold Increase in IGF-II mRNA Expression (IGF-II mRNA): 4.4 ± 4.0 fold | Fold Increase in IGF-II Protein Expression (IGF-II protein): 1.4 fold | IGF-II Protein Expression (pg/ml in media) (IGF-II protein): (213 ± 22) pg/ml

NC(=O)c1cccnc1 [Niacinamide]
Fold Increase in IGF-II mRNA Expression (IGF-II mRNA): 5.0 ± 3.6 fold | Fold Increase in IGF-II Protein Expression (IGF-II protein): 1.1 fold | IGF-II Protein Expression (pg/ml in media) (IGF-II protein): (151 ± 45) pg/ml

CN1CCCC1c1cccnc1.O=C(O)C(O)C(O)C(=O)O.O=C(O)C(O)C(O)C(=O)O (centres unmarked) [Nicotine ditartrate]
Fold Increase in IGF-II mRNA Expression (IGF-II mRNA): 4.8 ± 0.3 fold | Fold Increase in IGF-II Protein Expression (IGF-II protein): 1.5 fold | IGF-II Protein Expression (pg/ml in media) (IGF-II protein): (205 ± 26) pg/ml

COC(=O)C1=C(C)NC(C)=C(C(=O)OC)C1c1ccccc1[N+](=O)[O-] [Nifedipine]
Fold Increase in IGF-II mRNA Expression (IGF-II mRNA): 6.6 ± 6.2 fold

Cc1cc2c(s1)Nc1ccccc1N=C2N1CCN(C)CC1 [Olanzapine]
Fold Increase in IGF-II mRNA Expression (IGF-II mRNA): 4.0 fold

CCCc1nc(C(C)(C)O)c(C(=O)OCc2oc(=O)oc2C)n1Cc1ccc(-c2ccccc2-c2nnn[nH]2)cc1 [Olmesartan medoxomil]
Fold Increase in IGF-II mRNA Expression (IGF-II mRNA): 5.2 fold | induction of IGF-II expression (in words) (IGF-II mRNA): most active

COc1ccc2[nH]c([S+]([O-])Cc3ncc(C)c(OC)c3C)nc2c1 (centres unmarked) [Omeprazole]
Fold Increase in IGF-II mRNA Expression (IGF-II mRNA): 5.9 fold

CCC(=O)NCC[C@@H]1CCc2ccc3c(c21)CCO3 [Ramelteon]
Fold Increase in IGF-II mRNA Expression (IGF-II mRNA): 3.4 ± 1.3 fold | Fold Increase in IGF-II Protein Expression (IGF-II protein): 1.5 fold | IGF-II Protein Expression (pg/ml in media) (IGF-II protein): (201 ± 10) pg/ml

Cc1cc2nc3c(=O)[nH]c(=O)nc-3n(C[C@H](O)[C@H](O)[C@H](O)CO)c2cc1C [Riboflavin]
Fold Increase in IGF-II mRNA Expression (IGF-II mRNA): 4.1 ± 1.9 fold | Fold Increase in IGF-II Protein Expression (IGF-II protein): 1.5 fold | IGF-II Protein Expression (pg/ml in media) (IGF-II protein): (205 ± 42) pg/ml

CCCN(CCC)CCc1cccc2c1CC(=O)N2 [Ropinirole]
Fold Increase in IGF-II mRNA Expression (IGF-II mRNA): 4.5 ± 3.0 fold

Nc1c2c(nc3ccccc13)CCCC2 [Tacrine HCl]
Fold Increase in IGF-II mRNA Expression (IGF-II mRNA): 3.7 fold

Cc1ncc(C[n+]2csc(CCO[P@](=O)(O)OP(=O)(O)O)c2C)c(N)n1 [Thiamine pyrophosphate]
Fold Increase in IGF-II mRNA Expression (IGF-II mRNA): 4.1 ± 2.1 fold | Fold Increase in IGF-II Protein Expression (IGF-II protein): 0.9 fold | IGF-II Protein Expression (pg/ml in media) (IGF-II protein): (118 ± 42) pg/ml

CS(=O)(=O)c1ccc([C@@H](O)[C@@H](CO)NC(=O)C(Cl)Cl)cc1 [Thiamphenicol]
Fold Increase in IGF-II mRNA Expression (IGF-II mRNA): 3.5 fold

CC(C)[C@H](N)C(=O)OCCOCn1cnc2c(=O)[nH]c(N)nc21 [Valacyclovir HCl]
Fold Increase in IGF-II mRNA Expression (IGF-II mRNA): 4.2 ± 1.8 fold | Fold Increase in IGF-II Protein Expression (IGF-II protein): 1.5 fold | IGF-II Protein Expression (pg/ml in media) (IGF-II protein): (232 ± 4) pg/ml

Cc1ccc(-c2nc3ccc(C)cn3c2CC(=O)N(C)C)cc1 [Zolpidem]
Fold Increase in IGF-II mRNA Expression (IGF-II mRNA): 6.1 fold

COCCCOc1cc(C[C@@H](C[C@H](N)[C@@H](O)C[C@H](C(=O)NCC(C)(C)C(N)=O)C(C)C)C(C)C)ccc1OC [aliskiren hemifumarate]
induction of IGF-II expression (in words) (IGF-II mRNA): most active

CC(C)NCC(O)COc1ccc(CC(N)=O)cc1 (centres unmarked) [atenolol]
induction of IGF-II expression (in words) (IGF-II mRNA): most active

CCCCNc1cc(C(=O)O)cc(S(N)(=O)=O)c1Oc1ccccc1 [bumetanide]
induction of IGF-II expression (in words) (IGF-II mRNA): most active

COc1ccccc1OCCNCC(O)COc1cccc2[nH]c3ccccc3c12 (centres unmarked) [carvedilol]
induction of IGF-II expression (in words) (IGF-II mRNA): most active

Clc1cccc(Cl)c1N=C1NCCN1 [clonidine HCl]
induction of IGF-II expression (in words) (IGF-II mRNA): most active

COc1ccc(-c2cc(C(F)F)nn2-c2ccc(S(N)(=O)=O)cc2)cc1F [deracoxib]
IGF-II inducing activity (in words) (IGF-II mRNA): strong IGF-II inducing activity

O=C(O)c1cc(-c2ccc(F)cc2F)ccc1O [diflunisal]
IGF-II inducing activity (in words) (IGF-II mRNA): strong IGF-II inducing activity

COc1cc2c(cc1OC)C(=O)C(CC1CCN(Cc3ccccc3)CC1)C2 (centres unmarked) [donepezil HCl]
induction of IGF-II expression (in words) (IGF-II mRNA): most active

CC(COc1ccccc1)N(CCCl)Cc1ccccc1 (centres unmarked) [phenoxybenzamine HCl]
induction of IGF-II expression (in words) (IGF-II mRNA): most active

CC(C)(C)NC[C@H](O)COc1nsnc1N1CCOCC1 [timolol maleate]
induction of IGF-II expression (in words) (IGF-II mRNA): most active

Cc1onc(-c2ccccc2)c1-c1ccc(S(N)(=O)=O)cc1 [valdecoxib]
IGF-II inducing activity (in words) (IGF-II mRNA): strong IGF-II inducing activity

terbutaline hemisulfate
induction of IGF-II expression (in words) (IGF-II mRNA): most active
